This is an account of results in US20220168427A1 (Ranok Therapeutics (Hangzhou) Co. Ltd., priority 2019, published 2022).

pIC50: −log10 of the molar value. Where only a bound is given, the exact number is not on record here.

One series deals with T1, BRD4 (BD1+BD2) (Homo sapiens, UniProt O60885).
T1 construct: 1.8 μg/ml recombinant BRD4 (BD1+BD2 domains) protein
Particulars: read-out: BRD4 Binding Potency.

The target of a further series is HSP90α (Homo sapiens, UniProt P07900). Kind of series: HSP90α Binding Fluorescent Polarization (FP) Assay. Particulars: competition with FITC-geldanamycin; read-out: HSP90 Binding Potency. The method in brief: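 Duplicate wells held BSA buffer, FITC-geldanamycin tracer, compound (3-fold dilution plate spanning 40 μM–2.0 nM) and recombinant protein diluted to 28 μg/ml before addition. Polarization read at 30, 60 and 120 min, 25 °C. Background-corrected mP values gave IC50 through a four-parameter inhibitor-response fit.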

A further series concerns MV4-11 cells. In words: MV4-11 Cell Cytotoxicity Assay. It is filed as cell-based, human. Conditions: human, MV4-11 cells, CCK-8. The text has this:
% Inhibition=100−(D−B)/(S−B)*100%.
S: The absorbance of the maximum (cells with DMSO)
B: The absorbance of the minimum (medium with DMSO)

For the compound `Cc1sc2c(c1C)C(c1ccc(Cl)cc1)=N[C@@H](CC(=O)NCc1ccc(CN3CCC(Cc4ccc(-n5c(C(=O)NCC(F)(F)F)nnc5-c5cc(C(C)C)c(O)cc5O)cc4)CC3)cc1)c1nnc(C)n1-2` [Compound 96, (S)-4-(4-((1-(4-((2-(4-(4-chlorophenyl)-2,3,9-trimethyl-6H-thieno[3,2-f][1,2,4]triazolo[4,3-a][1,4]diazepin-6-yl)acetamido)methyl)benzyl)piperidin-4-yl)methyl)phenyl)-5-(2,4-dihydroxy-5-isopropylphenyl)-N-(2,2,2-trifluoroethyl)-4H-1,2,4-triazole-3-carboxamide, trifluoroacetic acid], the pIC50 was over 7.00 at BRD4 (BD1+BD2) and 6.00 to 7.00 on HSP90α. The compound also returned an IC50 at 72 h with MV4-11 cells of under 100 nM.

Consider `Cc1sc2c(c1C)C(c1ccc(Cl)cc1)=N[C@@H](CC(=O)N[C@H](C)c1cccc(CN3CCC(Cc4ccc(-n5c(C(=O)NCC(F)(F)F)nnc5-c5cc(C(C)C)c(O)cc5O)cc4)CC3)c1)c1nnc(C)n1-2` [Compound 97, 4-(4-((1-(3-((R)-1-(2-((S)-4-(4-chlorophenyl)-2,3,9-trimethyl-6H-thieno[3,2-f][1,2,4]triazolo[4,3-a][1,4]diazepin-6-yl)acetamido)ethyl)benzyl)piperidin-4-yl)methyl)phenyl)-5-(2,4-dihydroxy-5-isopropylphenyl)-N-(2,2,2-trifluoroethyl)-4H-1,2,4-triazole-3-carboxamide, trifluoroacetic acid], for which the pIC50 on BRD4 (BD1+BD2) is over 7.00; on HSP90α, 6.00 to 7.00. The same compound showed an IC50 at 72 h with MV4-11 cells of under 100 nM.

On to `Cc1sc2c(c1C)C(c1ccc(Cl)cc1)=N[C@@H](CC(=O)NCCc1ccc(CN3CCC(Cc4ccc(-n5c(O)nnc5-c5cc(C(C)C)c(O)cc5O)cc4)CC3)cc1)c1nnc(C)n1-2` [Compound 98, (S)-2-(4-(4-chlorophenyl)-2,3,9-trimethyl-6H-thieno[3,2-f][1,2,4]triazolo[4,3-a][1,4]diazepin-6-yl)-N-(4-((4-(4-(3-(2,4-dihydroxy-5-isopropylphenyl)-5-hydroxy-4H-1,2,4-triazol-4-yl)benzyl)piperidin-1-yl)methyl)phenethyl)acetamide, trifluoroacetic acid], for which the pIC50 at BRD4 (BD1+BD2) and on HSP90α was 6.00 to 7.00 in each case. Further, the IC50 at 72 h with MV4-11 cells is under 100 nM.

Regarding `Cc1sc2c(c1C)C(c1ccc(Cl)cc1)=N[C@@H](CC(=O)N(C)CCOc1ccc(CN(C)Cc3ccc(-n4c(O)nnc4-c4cc(C(C)C)c(O)cc4O)cc3)cc1)c1nnc(C)n1-2` [Compound 99, (S)-2-(4-(4-chlorophenyl)-2,3,9-trimethyl-6H-thieno[3,2-f][1,2,4]triazolo[4,3-a][1,4]diazepin-6-yl)-N-(2-(4-(((4-(3-(2,4-dihydroxy-5-isopropylphenyl)-5-hydroxy-4H-1,2,4-triazol-4-yl)benzyl)(methyl)amino)methyl)phenoxy)ethyl)-N-methylacetamide, formic acid], the pIC50 on BRD4 (BD1+BD2) is under 6.00; on HSP90α, 6.00 to 7.00. Also, the IC50 at 72 h with MV4-11 cells was under 100 nM.

As for `CCN(Cc1ccc(OCCCNC(=O)C[C@@H]2N=C(c3ccc(Cl)cc3)c3c(sc(C)c3C)-n3c(C)nnc32)cc1)Cc1ccc(-n2c(O)nnc2-c2cc(C(C)C)c(O)cc2O)cc1` [Compound 100, (S)-2-(4-(4-chlorophenyl)-2,3,9-trimethyl-6H-thieno[3,2-f][1,2,4]triazolo[4,3-a][1,4]diazepin-6-yl)-N-(3-(4-(((4-(3-(2,4-dihydroxy-5-isopropylphenyl)-5-hydroxy-4H-1,2,4-triazol-4-yl)benzyl)(ethyl)amino)methyl)phenoxy)propyl)acetamide, formic acid], the pIC50 at BRD4 (BD1+BD2) and on HSP90α was 6.00 to 7.00 in each case. In the series on MV4-11 cells, this compound yielded an IC50 at 72 h of under 100 nM.

On to `Cc1sc2c(c1C)C(c1ccc(Cl)cc1)=N[C@@H](CC(=O)N(C)CCOc1ccc(CN(C)Cc3ccc(-n4c(C(=O)NCC(F)(F)F)nnc4-c4cc(C(C)C)c(O)cc4O)cc3)cc1)c1nnc(C)n1-2` [Compound 101, (S)-4-(4-(((4-(2-(2-(4-(4-chlorophenyl)-2,3,9-trimethyl-6H-thieno[3,2-f][1,2,4]triazolo[4,3-a][1,4]diazepin-6-yl)-N-methylacetamido)ethoxy)benzyl)(methyl)amino)methyl)phenyl)-5-(2,4-dihydroxy-5-isopropylphenyl)-N-(2,2,2-trifluoroethyl)-4H-1,2,4-triazole-3-carboxamide, formic acid], for which the pIC50 on BRD4 (BD1+BD2) and at HSP90α was under 6.00 in each case. The compound further returned an IC50 at 72 h in the series with MV4-11 cells of under 100 nM.

On to `CCN(Cc1ccc(OCCCNC(=O)C[C@@H]2N=C(c3ccc(Cl)cc3)c3c(sc(C)c3C)-n3c(C)nnc32)cc1)Cc1ccc(-n2c(C(=O)NCC(F)(F)F)nnc2-c2cc(C(C)C)c(O)cc2O)cc1` [Compound 102, (S)-4-(4-(((4-(3-(2-(4-(4-chlorophenyl)-2,3,9-trimethyl-6H-thieno[3,2-f][1,2,4]triazolo[4,3-a][1,4]diazepin-6-yl)acetamido)propoxy)benzyl)(ethyl)amino)methyl)phenyl)-5-(2,4-dihydroxy-5-isopropylphenyl)-N-(2,2,2-trifluoroethyl)-4H-1,2,4-triazole-3-carboxamide, trifluoroacetic acid], for which the pIC50 on BRD4 (BD1+BD2) and on HSP90α was under 6.00 in each case. In the series on MV4-11 cells, this compound yielded a half-inhibitory concentration (IC50) at 72 h of under 100 nM.

For `Cc1sc2c(c1C)C(c1ccc(Cl)cc1)=N[C@@H](CC(=O)N1CCC(CN3CCN(Cc4ccc(-n5c(O)nnc5-c5cc(C(C)C)c(O)cc5O)cc4)CC3)CC1)c1nnc(C)n1-2` [Compound 103, (S)-2-(4-(4-chlorophenyl)-2,3,9-trimethyl-6H-thieno[3,2-f][1,2,4]triazolo[4,3-a][1,4]diazepin-6-yl)-1-(4-((4-(4-(3-(2,4-dihydroxy-5-isopropylphenyl)-5-hydroxy-4H-1,2,4-triazol-4-yl)benzyl)piperazin-1-yl)methyl)piperidin-1-yl)ethan-1-one acetate], the pIC50 at BRD4 (BD1+BD2) and on HSP90α was 6.00 to 7.00 each time. Further, the IC50 at 72 h in the series on MV4-11 cells was under 100 nM.

Consider `CCc1cc(-c2nnc(C(=O)NCCN(CC)CC)n2-c2ccc(CN3CCN(CC4CCN(C(=O)C[C@@H]5N=C(c6ccc(Cl)cc6)c6c(sc(C)c6C)-n6c(C)nnc65)CC4)CC3)cc2)c(O)cc1O` [Compound 104, (S)-4-(4-((4-((1-(2-(4-(4-chlorophenyl)-2,3,9-trimethyl-6H-thieno[3,2-f][1,2,4]triazolo[4,3-a][1,4]diazepin-6-yl)acetyl)piperidin-4-yl)methyl)piperazin-1-yl)methyl)phenyl)-N-(2-(diethylamino)ethyl)-5-(5-ethyl-2,4-dihydroxyphenyl)-4H-1,2,4-triazole-3-carboxamide, trifluoroacetic acid], for which the pIC50 on BRD4 (BD1+BD2) was over 7.00; at HSP90α, 6.00 to 7.00. The same compound yielded an IC50 at 72 h in the series with MV4-11 cells of under 100 nM.

Regarding `CCc1cc(-c2nnc(C(=O)NC(C)C)n2-c2ccc(CN3CCN(CC4CCN(C(=O)C[C@@H]5N=C(c6ccc(Cl)cc6)c6c(sc(C)c6C)-n6c(C)nnc65)CC4)CC3)cc2)c(O)cc1O` [Compound 105, (S)-4-(4-((4-((1-(2-(4-(4-chlorophenyl)-2,3,9-trimethyl-6H-thieno[3,2-f][1,2,4]triazolo[4,3-a][1,4]diazepin-6-yl)acetyl)piperidin-4-yl)methyl)piperazin-1-yl)methyl)phenyl)-5-(5-ethyl-2,4-dihydroxyphenyl)-N-isopropyl-4H-1,2,4-triazole-3-carboxamide, trifluoroacetic acid], the pIC50 at BRD4 (BD1+BD2) and at HSP90α was 6.00 to 7.00 each time. In addition, the IC50 at 72 h with MV4-11 cells was under 100 nM.
